Test results from patent publication US8410168B2, “Methods and compositions for treating ophthalmic conditions with retinyl derivatives” (Acucela, Inc., priority 2004, dated 2013).

Biological target: T1, apo-CRALBP (Homo sapiens, UniProt P12271)
T1 construct: made in house
Test: Ni+ affinity column and spectroscopic analysis of binding to CRALBP
Conditions: 10 μM apo-CRALBP, 20 μM ligand
Procedure: In order to confirm data obtained during fluorescence analysis of HPR binding to CRALBP, a second analysis was performed using affinity chromatography and spectroscopic analysis. The recombinant apo-CRALBP was constructed with a histidine tag which is utilized to purify the protein on a Ni+ affinity column following expression cloning. Here, we utilized this feature of apo-CRALBP to specifically “trap” the protein and any protein-ligand species for spectroscopic analysis. Two binding mixtures were prepared containing apo-CRALBP (10 μM) and either 11cRAL (20 μM) or HPR (20 μM). In control experiments for the analysis of non-specific ligand binding onto the affinity matrix, we prepared two additional mixtures containing only 11cRAL (20 μM) or HPR (20 μM) in binding buffer. The binding mixtures were passed through separate Ni+ affinity columns and the columns were washed extensively to elute unbound protein and ligand. Following the addition of elution buffer, the eluted fractions were analyzed by spectroscopy. […] Instead, two absorption maxima are seen: one at 280 nm and a second at 360 nm, which is attributable to the absorption of HPR (see FIG. 14).

T1 sequence (P12271 whole entry, species assumed): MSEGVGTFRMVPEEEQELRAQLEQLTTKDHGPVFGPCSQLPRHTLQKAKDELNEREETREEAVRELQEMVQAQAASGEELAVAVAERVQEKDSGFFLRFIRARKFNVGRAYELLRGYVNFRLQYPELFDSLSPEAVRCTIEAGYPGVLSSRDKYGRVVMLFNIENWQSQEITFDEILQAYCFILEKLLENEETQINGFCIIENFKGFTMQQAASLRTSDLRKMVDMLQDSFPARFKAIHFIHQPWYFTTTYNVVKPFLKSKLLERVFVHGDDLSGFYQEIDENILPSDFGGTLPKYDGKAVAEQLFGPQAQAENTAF

CC1=C(/C=C/C(C)=C/C=C/C(C)=C/C(=O)Nc2ccc(O)cc2)C(C)(C)CCC1 [HPR, N-(4-hydroxyphenyl)retinamide]
binding to apo-CRALBP by absorption spectra of eluted fraction: binds apo-CRALBP
